Test results taken from ChEMBL document CHEMBL3436045 (Sci Rep, 2013).

Each molecule was assayed against T1, Voltage-gated L-type calcium channel (Homo sapiens, UniProt Q13936+Q13698+Q01668+O60840) (assay: Inhibition of Cav1.2 current measured using PatchXpress automatic path clamp system in CHO cells expressing Cav1.2, beta-2 and alpha-2/delta-1 subunits).
Type: functional, cell-based, Cricetulus griseus
Set-up: ca sol conc 1.8 mM, temp Ambient

Q: Which IC50 does the source give for CCCC(C)C1(CC)C(=O)NC(=O)NC1=O (stereo not given) [PENTOBARBITAL] here?
A: The IC50 was 299 µM.

Each molecule was assayed against T1, Voltage-gated L-type calcium channel (assay: (§1) Inhibition of Cav1.2 current measured using QPatch automatic path clamp system in CHO cells expressing Cav1.2, beta-2 and alpha-2/delta-1 subunits).
Type: functional, cell-based, Cricetulus griseus
Set-up: ca sol conc 1.8 mM, temp Ambient

Q: How did the IC50 turn out when NC(=O)c1ncn([C@@H]2O[C@H](CO)[C@@H](O)[C@H]2O)n1 [RIBAVIRIN] was run?
A: The IC50 was 622.5 µM.

Q: For N[C@@H](CC(=O)N1CCn2c(nnc2C(F)(F)F)C1)Cc1cc(F)c(F)cc1F [SITAGLIPTIN], which IC50 is on record?
A: Its IC50 is 147.1 µM.

Q: With CCN(CC)CCNC(=O)c1c(C)[nH]c(/C=C2\C(=O)Nc3ccc(F)cc32)c1C [SUNITINIB] as the molecule, how does the IC50 read?
A: The IC50 was 33.4 µM.

Q: How did the IC50 turn out when CO/N=C(\C(=O)N[C@@H]1C(=O)N2C(C(=O)O)=C(CSc3nc(=O)c(O)nn3C)CS[C@H]12)c1csc(N)n1 [CEFTRIAXONE] was run?
A: Its IC50 is 153.8 µM.

Q: For O=C1CCc2cc(OCCCCc3nnnn3C3CCCCC3)ccc2N1 [CILOSTAZOL], which IC50 is on record?
A: The IC50 was 91.2 µM.

Q: For O=C(CCCN1CC=C(n2c(=O)[nH]c3ccccc32)CC1)c1ccc(F)cc1 [DROPERIDOL], which IC50 is on record?
A: Its IC50 is 7.6 µM.

Q: COc1cc(N)c(Cl)cc1C(=O)NC1CCN(CCCOc2ccc(F)cc2)CC1OC (stereo not given) [CISAPRIDE] was tested. Which IC50 did it give?
A: Its IC50 is 11.8 µM.

Q: Fc1ccc([C@@H]2CCNC[C@H]2COc2ccc3c(c2)OCO3)cc1 [PAROXETINE] was tested. Which IC50 did it give?
A: Its IC50 is 3.9 µM.

Q: With Cc1cn([C@@H]2C[C@@H](O)[C@H](CO)O2)c(=O)[nH]c1=O [TELBIVUDINE] as the molecule, how does the IC50 read?
A: Its IC50 is 713.9 µM.

Q: Which IC50 does the source give for CC(=O)NC[C@H]1CN(c2ccc(N3CCOCC3)c(F)c2)C(=O)O1 [LINEZOLID] here?
A: Its IC50 is 105.4 µM.

Q: CCN1CCN(C(=O)N[C@@H](C(=O)N[C@@H]2C(=O)N3[C@@H]2SC(C)(C)[C@@H]3C(=O)O)c2ccccc2)C(=O)C1=O [PIPERACILLIN] was tested. Which IC50 did it give?
A: The IC50 was 1226 µM.

Q: Cc1nc2n(c(=O)c1CCN1CCC(c3noc4cc(F)ccc34)CC1)CCCC2O (stereo not given) [PALIPERIDONE] was tested. Which IC50 did it give?
A: Its IC50 is 193.9 µM.

Q: For C[C@@H]1CN(c2c(F)c(N)c3c(=O)c(C(=O)O)cn(C4CC4)c3c2F)C[C@H](C)N1 [SPARFLOXACIN], which IC50 is on record?
A: Its IC50 is 88.8 µM.

Q: For CCCCCCCN(CC)CCCC(O)c1ccc(NS(C)(=O)=O)cc1 (stereo not given) [IBUTILIDE], which IC50 is on record?
A: The IC50 was 62.5 µM.

Q: CC(CC(c1ccccc1)c1ccccc1)NC(C)(C)C (stereo not given) [TERODILINE] was tested. Which IC50 did it give?
A: Its IC50 is 4.8 µM.

Q: For O=C1NCCN1CCN1CCC(c2cn(-c3ccc(F)cc3)c3ccc(Cl)cc23)CC1 [SERTINDOLE], which IC50 is on record?
A: The IC50 was 6.3 µM.

Q: Which IC50 does the source give for O=C1NC(=O)C(c2ccccc2)(c2ccccc2)N1 [PHENYTOIN] here?
A: The IC50 was 21.9 µM.

Q: CC(C)N(CCC(C(N)=O)(c1ccccc1)c1ccccn1)C(C)C (stereo not given) [DISOPYRAMIDE] was tested. Which IC50 did it give?
A: The IC50 was 1036.7 µM.

The molecules below were run against T1, Voltage-gated L-type calcium channel (assay: as §1).
Type: functional, cell-based, Cricetulus griseus

Q: C[C@@H](c1ncncc1F)[C@](O)(Cn1cncn1)c1ccc(F)cc1F [VORICONAZOLE] was tested. Which IC50 did it give?
A: Its IC50 is 414.2 µM.
